Experimental data from publication PMC7324980, “A novel bacterial β-N-acetyl glucosaminidase from Chitinolyticbacter meiyuanensis possessing transglycosylation and reverse hydrolysis activities” (Biotechnology for Biofuels, 2020).

Target: T1, CmNAGase (Chitinolyticbacter meiyuanensis, UniProt A0A7D5C7R1)
T1 construct: full length, 836 residues (2508 bp), no signal peptide predicted, C-terminal His6-tag, pET-28a(+), E. coli BL21(DE3), 92 kDa; native peptides […], […], […]; catalytic D508, E509
Experiment: pNP release at […] nm, Lineweaver-Burk
Format: biochemical
Conditions: 50 mM sodium citrate, pH 5.4, 40 °C, 50-1000 μM substrate

T1 sequence (A0A7D5C7R1 entry or part of it): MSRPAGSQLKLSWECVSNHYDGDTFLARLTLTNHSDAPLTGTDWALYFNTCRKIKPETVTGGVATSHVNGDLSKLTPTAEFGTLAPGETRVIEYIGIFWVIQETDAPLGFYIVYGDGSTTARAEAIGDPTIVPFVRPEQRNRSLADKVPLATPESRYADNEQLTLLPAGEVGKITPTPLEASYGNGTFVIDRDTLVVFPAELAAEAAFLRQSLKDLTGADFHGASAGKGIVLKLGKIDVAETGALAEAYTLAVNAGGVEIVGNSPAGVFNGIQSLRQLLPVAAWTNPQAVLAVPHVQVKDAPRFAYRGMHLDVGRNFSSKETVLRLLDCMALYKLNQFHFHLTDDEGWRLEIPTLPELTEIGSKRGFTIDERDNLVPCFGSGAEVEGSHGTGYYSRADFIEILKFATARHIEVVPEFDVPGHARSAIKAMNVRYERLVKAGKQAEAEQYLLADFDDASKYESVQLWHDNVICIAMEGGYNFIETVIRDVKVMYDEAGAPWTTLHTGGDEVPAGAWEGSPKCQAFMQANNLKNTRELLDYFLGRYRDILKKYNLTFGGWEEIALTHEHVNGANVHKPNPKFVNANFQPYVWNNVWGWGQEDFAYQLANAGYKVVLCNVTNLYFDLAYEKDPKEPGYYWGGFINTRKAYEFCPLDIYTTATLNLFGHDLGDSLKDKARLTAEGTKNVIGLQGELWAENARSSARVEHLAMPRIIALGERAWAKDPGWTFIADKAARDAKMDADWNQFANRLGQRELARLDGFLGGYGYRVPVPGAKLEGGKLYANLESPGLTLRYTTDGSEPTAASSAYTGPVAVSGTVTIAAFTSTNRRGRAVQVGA

CC(=O)N[C@H]1[C@H](Oc2ccc([N+](=O)[O-])cc2)O[C@H](CO)[C@@H](O)[C@@H]1O [pNP-GlcNAc]
Km: 500 µM
